Entries after “also recorded” stand apart in the source; their conditions may differ. Where two headings read alike, the source gives them in different places.
Tests used:
[1] = parameters: method as in Symmetrel package insert; conditions: ref Symmetrel package insert, cited from earlier work
[2] = Steady-state plasma pharmacokinetics, open-label randomized three-way crossover study, drugs alone or in combination; conditions: for Tmax / half-life / AUC(0-t) / Cmax: human, in vivo; for effect of amantadine coadministration on PK (in words): oseltamivir 75 mg BID + amantadine 100 mg BID
cytochrome P450 isoforms = tested on: cytochrome P450 isoforms; parameters: method as in Tamiflu package insert; conditions: ref Tamiflu package insert; cited from earlier work
[3] = cited from earlier work; for mean Cmax: twice daily oral dosing with 75 mg oseltamivir capsule; for mean Cmax / AUC0-12: ref Oseltamivir package insert; for AUC0-12: values reported earlier, 75 mg oseltamivir twice daily
[4] = tested on: recombinant amantadine sensitive A/Vietnam/1203/04 (H5N1) virus; conditions: mice, lethal challenge, equivalent human therapeutic doses, ref Ilyushina, in press; cited from earlier work
[5] = Safety and tolerability (adverse events) in the crossover study; conditions: eight adverse events in total during the trial; 17 subjects
[6] = tested on: all strains of influenza A and B tested, including H5N1; conditions: no reference given; cited from earlier work
[7] = under fasted conditions, ref Tamiflu package insert
[8] = under fed conditions, ref Tamiflu package insert
[9] = oseltamivir carboxylate, combination therapy with amantadine 100 mg BID
[10] = oseltamivir carboxylate, oseltamivir monotherapy 75 mg BID
[11] = oseltamivir, combination therapy with amantadine 100 mg BID
[12] = oseltamivir, oseltamivir monotherapy 75 mg BID

For `CC(=O)NC12CC3CC(CC(C3)C1)C2` [Acetylamantadine, acetylamantadine], the “plasma acetylamantadine as share of the concurrent amantadine plasma concentration” value ([1]; 5 of 12 healthy volunteers, 200 mg dose of amantadine) is listed as “up to 80%”, the “N-acetylated metabolite in human urine, share of the administered dose” value [1] is listed as 5-15% and the “detection of acetylamantadine in plasma” value ([1]; remaining seven of 12 volunteers) is listed as “not detected”. The “detection of acetylamantadine in plasma” value ([2]; current study, seventeen volunteers, LLOQ approximately 5.00 ng/mL) was “not detected”.
In the case of `CCC(CC)O[C@@H]1C=C(C(=O)O)C[C@H](N)[C@H]1NC(C)=O` [Oseltamivir carboxylate, oseltamivir carboxylate], the “substrate for, or inhibitor of, cytochrome P450 isoforms” value (cytochrome P450 isoforms) is given as “Neither oseltamivir nor oseltamivir carboxylate is a substrate for, or inhibitor of, cytochrome P450 isoforms; also recorded: Neither oseltamivir nor oseltamivir carboxylate is a substrate for”, the “share of an oral dose reaching the systemic circulation as oseltamivir carboxylate” value ([3]; oral oseltamivir phosphate, ref Tamiflu package insert) is given as “At least 75%” and the “mean Cmax” value [3] is given as 348 ng/mL. For the same molecule, the “area under the plasma concentration time curve” value [3, 7] was 6218 ng·h/mL, the peak plasma concentration [3, 7] was 551 ng/mL and the “area under the plasma concentration time curve” value [3, 8] was 6069 ng·h/mL. For the same molecule, the peak plasma concentration [3, 8] was 441 ng/mL, the AUC0-12 [3] was 2719 ng·h/mL and the Tmax [2] was 3.07 h. The half-life [2] was 369 min, the AUC(0-t) ([2]; 75 mg) was 3430 ng·h/mL and the Cmax ([2]; 75 mg) was 407 ng/mL. The Tmax ([2]; 75 mg) was 3.22 h, the half-life ([2]; 75 mg) was 365 min and the “effect of amantadine coadministration on PK (in words)” value [2] was “did not meaningfully affect”. The “apparent clearance, geometric mean” value [2, 9] was 22.3 L/h, the “apparent distribution volume, geometric mean” value (“apparent distribution volume” below) [2, 9] was 197 L and the “apparent clearance, geometric mean” value [2, 10] was 21.9 L/h. The “apparent distribution volume” value [2, 10] was 192 L.
For `CCOC(=O)C1=C[C@@H](OC(CC)CC)[C@H](NC(C)=O)[C@@H](N)C1` [Oseltamivir, oseltamivir, reference compound], the “substrate for, or inhibitor of, cytochrome P450 isoforms” value (cytochrome P450 isoforms) is listed as “Neither oseltamivir nor oseltamivir carboxylate is a substrate for, or inhibitor of, cytochrome P450 isoforms; also recorded: Neither oseltamivir nor oseltamivir carboxylate is a substrate for”, the “exposure to oseltamivir as share of the total exposure” value ([3]; after oral dosing, ref Tamiflu package insert) is listed as “less than 5%” and the “share of absorbed oseltamivir eliminated by conversion to oseltamivir carboxylate” value ([3]; ref Tamiflu package insert) is listed as over 90%. The “mean Cmax” value [3] was 65.2 ng/mL, the AUC0-12 [3] was 112 ng·h/mL and the “animals protected from mortality” value [4] was 20%. The “number of adverse events reported, all mild” value [5] was “three”, the Tmax [2] was 0.85 h and the half-life [2] was 110 min. The AUC(0-t) ([2]; 75 mg) was 161 ng·h/mL, the Cmax ([2]; 75 mg) was 60.2 ng/mL and the Tmax ([2]; 75 mg) was 0.76 h. For the same molecule, the half-life ([2]; 75 mg) was 111 min, the “effect of amantadine coadministration on PK (in words)” value [2] was “did not meaningfully affect” and the “apparent clearance, geometric mean” value [2, 11] was 505 L/h. The “apparent distribution volume” value [2, 11] was 1329 L, the “apparent clearance, geometric mean” value [2, 12] was 465 L/h and the “apparent distribution volume” value [2, 12] was 1245 L. The “effectiveness (in words)” value [6] was “effective against all strains of influenza A and B tested, including H5N1”.

— paper PMC2110886 (PLoS ONE, 2007)
